Measured values: ChEMBL document CHEMBL1687734, “Pharmacokinetics of EDP-420 after multiple oral doses in healthy adult volunteers and in a bioequivalence study” (Antimicrob Agents Chemother, 2009)

Columns and labels:
[1] = Tmax in 8 hrs fasted healthy human plasma at 200 mg, po administered as single dose of suspension; type: ADME, organism-based
[2] = Tmax in 8 hrs fasted healthy human plasma at 200 mg, po administered as single dose of two-100 mg capsules; type: ADME, organism-based
[3] = Tmax in high-fat fed healthy human plasma at 200 mg, po administered as single dose of two-100 mg capsules; type: ADME, organism-based
[4] = AUC (0 to last) in 8 hrs fasted healthy human plasma at 200 mg, po administered as single dose of two-100 mg capsules; type: ADME, organism-based; design: dose 200 mg, route oral, time 0 - last
[5] = AUC (0 to infinity) in 8 hrs fasted healthy human plasma at 200 mg, po administered as single dose of two-100 mg capsules; type: ADME, organism-based; design: dose 200 mg, route oral, time infinity
[6] = Half life in 8 hrs fasted healthy human plasma at 200 mg, po administered as single dose of two-100 mg capsules; type: ADME, organism-based
[7] = Half life in high-fat fed healthy human plasma at 200 mg, po administered as single dose of two-100 mg capsules; type: ADME, organism-based
Homo sapiens [8] = assay: Ratio of Cmax in 8 hrs fasted healthy human plasma at 200 mg, po administered as single dose of suspension to cmax in 8 hrs fasted healthy human plasma assessed as EDP-420 9-keto level at 200 mg, po administered as single dose of suspension; type: ADME, organism-based; conditions: in vivo
Homo sapiens [9] = assay: Ratio of Cmax in 8 hrs fasted healthy human plasma at 200 mg, po administered as single dose of two-100 mg capsules to cmax in 8 hrs fasted healthy human plasma assessed as EDP-420 9-keto level at 200 mg, po administered as single dose of two-100 mg capsules; type: ADME, organism-based; conditions: in vivo
Homo sapiens [10] = assay: Ratio of AUC (0 to infinity)in 8 hrs fasted healthy human plasma at 200 mg, po administered as single dose of two-100 mg capsules to AUC (0 to infinity) in 8 hrs fasted healthy human plasma assessed as EDP-420 9-keto level at 200 mg, po administered as single dose of two-100 mg capsules; type: ADME, organism-based; conditions: in vivo
Homo sapiens [11] = assay: Ratio of AUC (0 to infinity) in high-fat fed healthy human plasma at 200 mg, po administered as single dose of two-100 mg capsules to AUC (0 to infinity) in high-fat fed healthy human plasma assessed as EDP-420 9-keto level at 200 mg, po administered as single dose of two-100 mg capsules; type: ADME, organism-based; conditions: in vivo
[12] = AUC (0 to 24 hrs) in Alveolar macrophage of healthy human at 400 mg, po administered as single dose; type: ADME, organism-based; conditions: alveolar macrophages, read-out: Drug uptake
[13] = Ratio of AUC (0 to 24 hrs) in epithelial lining fluid of healthy human to AUC (0 to 24 hrs) in healthy human plasma at 400 mg, po administered as single dose; type: ADME, organism-based
[14] = Ratio of AUC (0 to 24 hrs) in Alveolar macrophage of healthy human to AUC (0 to 24 hrs) in healthy human plasma at 400 mg, po administered as single dose; type: ADME, organism-based; conditions: alveolar macrophages / plasma
[15] = Drug concentration in Epithelial lining fluid of healthy human at 400 mg, po administered as single dose after 24 hrs; type: ADME, organism-based; conditions: read-out: Drug uptake
[16] = Ratio of drug concentration in Alveolar macrophage of healthy human at 400 mg, po administered as single dose after 24 hrs to drug concentration in Alveolar macrophage of healthy human at 500 mg, po administered as single dose after 24 hrs; type: ADME, organism-based; conditions: in vivo
Homo sapiens [17] = assay: Ratio of AUC (0 to 24 hrs) in healthy human plasma at 200 mg, po once daily for 3 days measured after 3 days to AUC (0 to 24 hrs) in healthy human plasma at 200 mg, po once daily for 3 days measured after 1 day; type: ADME, organism-based; conditions: in vivo
Homo sapiens [18] = assay: Toxicity in healthy human assessed as occurrence of mortality at 200 mg, po once daily for 3 days; type: organism-based; conditions: in vivo, 72 h
Homo sapiens [19] = assay: Toxicity in healthy human assessed as incidence of severe adverse events at 200 mg, po once daily for 3 days; type: organism-based; conditions: in vivo, 72 h
Homo sapiens [20] = assay: Toxicity in healthy human in 8 hrs fasted healthy human assessed as incidence of severe adverse events at 200 mg, po administered as single dose of suspension; type: organism-based; conditions: in vivo
Homo sapiens [21] = assay: Toxicity in healthy human in 8 hrs fasted healthy human assessed as incidence of severe adverse events at 200 mg, po administered as single dose of two-100 mg capsules; type: organism-based; conditions: in vivo
Homo sapiens [22] = assay: Toxicity in high-fat fed healthy human assessed as incidence of severe adverse events at 200 mg, po administered as single dose of two-100 mg capsules; type: organism-based; conditions: in vivo
Homo sapiens [23] = assay: Toxicity in high-fat fed healthy human assessed as changes in liver functions at 200 mg, po administered as single dose of two-100 mg capsules; type: organism-based; conditions: in vivo
Homo sapiens [24] = assay: Toxicity in healthy human in 8 hrs fasted healthy human assessed as changes in vital signs at 200 mg, po administered as single dose of suspension; type: organism-based; conditions: in vivo
Homo sapiens [25] = assay: Toxicity in healthy human in 8 hrs fasted healthy human assessed as changes in physical examinations at 200 mg, po administered as single dose of suspension; type: organism-based; conditions: in vivo
[26] = Cmax in healthy human plasma at 200 mg, po once daily for 3 days measured after 1 day; type: ADME, organism-based; design: dose 200 mg, route oral
[27] = Tmax in healthy human plasma at 200 mg, po once daily for 3 days measured after 3 days; type: ADME, organism-based
[28] = AUC (0 to last) in healthy human plasma at 200 mg, po once daily for 3 days measured after 1 day; type: ADME, organism-based; design: dose 200 mg, time 0 - last, route oral
[29] = AUC (0 to infinity) in healthy human plasma at 200 mg, po once daily for 3 days measured after 3 days; type: ADME, organism-based; design: dose 200 mg, route oral, time infinity
[30] = Half life in healthy human plasma at 200 mg, po once daily for 3 days measured after 3 days; type: ADME, organism-based
[31] = Cmax in healthy human plasma at loading dose of 400 mg/day, po once daily for 3 days measured after 1 day; type: ADME, organism-based; design: dose 400 mg/day, route oral
[32] = Tmax in healthy human plasma at loading dose of 400 mg/day, po once daily for 3 days measured after 1 day; type: ADME, organism-based
[33] = AUC (0 to last) in healthy human plasma at loading dose of 400 mg/day, po once daily for 3 days measured after 1 day; type: ADME, organism-based; design: dose 400 mg/day, time 0 - last, route oral
[34] = Cmax in healthy human plasma at 400 mg administered once on day 1 followed by 200 mg once daily for 2 days during 3 days of treatment measured after 3 days; type: ADME, organism-based; design: dose 400 mg
[35] = AUC (0 to last) in healthy human plasma at 400 mg administered once on day 1 followed by 200 mg once daily for 2 days during 3 days of treatment measured after 3 days; type: ADME, organism-based; design: dose 400 mg, time 0 - last
[36] = AUC (0 to infinity) in healthy human plasma at 400 mg administered once on day 1 followed by 200 mg once daily for 2 days during 3 days of treatment measured after 3 days; type: ADME, organism-based; design: dose 400 mg, time infinity
Homo sapiens [37] = assay: Ratio of AUC (0 to 24 hrs) in healthy human plasma at loading dose of 400 mg/day, po once daily measured on 1 day to AUC (0 to 24 hrs) in healthy human plasma at 400 mg administered once on day 1 followed by 200 mg once daily for 2 days during 3 days of treatment measured on day 3; type: ADME, organism-based; conditions: in vivo

Tmax [1]: 3.5 h
Tmax [2]: 3.5 h
Tmax [3]: 4 h
AUC(0-t) [4]: 8.94 µg·h/mL
AUC(0-inf) [5]: 9.03 µg·h/mL
half-life [6]: 16.9 h
half-life [7]: 16.9 h
Ratio (Homo sapiens [8]): 0.065
Ratio (Homo sapiens [9]): 0.058
Ratio (Homo sapiens [10]): 0.093
Ratio (Homo sapiens [11]): 0.147
AUC [12]: 2560 µg·h/mL
Kp [13]: 20.3
Kp [14]: 245
concentration at 24 h [15]: 6500 ng/mL
Ratio [16]: > 2
Ratio AUC (Homo sapiens [17]): 1.4
Cmax [26]: 432 ng/mL
Tmax [27]: 3.25 h
AUC(0-t) at 24 h [28]: 6.2 µg·h/mL
AUC(0-inf) [29]: 16.4 µg·h/mL
half-life [30]: 17.4 h
Cmax [31]: 548 ng/mL
Tmax [32]: 4 h
AUC(0-t) at 24 h [33]: 8.1 µg·h/mL
Cmax [34]: 514 ng/mL
AUC(0-t) [35]: 15 µg·h/mL
AUC(0-inf) [36]: 15.1 µg·h/mL
Ratio AUC (Homo sapiens [37]): 0.99
SMILES: CC[C@H]1OC(=O)[C@H](C)C(=O)[C@H](C)[C@@H](O[C@@H]2O[C@H](C)C[C@H](N(C)C)[C@H]2O)[C@@]2(C)C[C@@H](C)/C(=N\C(C)=O)[C@H](C)[C@@H](OC/C(=N\OCc3ccc(-n4cccn4)nc3)CO2)[C@]1(C)O [MODITHROMYCIN]
Activity (Homo sapiens [18]): Non-toxic
Activity (Homo sapiens [19]): Non-toxic
Activity (Homo sapiens [20]): Non-toxic
Activity (Homo sapiens [21]): Non-toxic
Activity (Homo sapiens [22]): Non-toxic
Activity (Homo sapiens [23]): Non-toxic
Activity (Homo sapiens [24]): Non-toxic
Activity (Homo sapiens [25]): Non-toxic
